Test results published in PMC10412832 (Computational and Structural Biotechnology Journal, 2023).
Like-named read-outs stand apart in the source and are kept apart here. Ends that are not written are not given here.

Key:
SARS-CoV-2 = conditions: cited from earlier work
[1] = ref [44]; cited from earlier work
[2] = ref [46]; cited from earlier work
[3] = biological target: recombinant SARS-CoV-2 M^pro (Severe acute respiratory syndrome coronavirus 2, UniProt P0DTD1)

LL-37: Source: Homo sapiens (LLGDFFRKSKEKIGKEFKRIVQRIKDFLRNLVPRTES; Antibacterial peptide LL-37; UniProt P49913 134-170, looked up)
Effect against viruses / SARS-CoV-2 (SARS-CoV-2; ref [36]): effective against viruses and a few against SARS-CoV-2

Protegrin 1: Source: Sus scrofa (RGGRLCYCRRRFCVCVGR; ends and bridges not checked; cysteine pairing not given here; UniProt P32194 131-148, looked up)
Effect against viruses / SARS-CoV-2 (SARS-CoV-2; ref [36]): effective against viruses and a few against SARS-CoV-2

Protegrin 2: cysteine rich potent antimicrobial peptide originally isolated from pigs; two cysteine-cysteine disulfide bridges; PDB ID 2MUH
Antimicrobial activity [1]: potent
Toxicity [2]: low toxicity
M^pro proteolytic cleavage activity [3]: inhibits the proteolytic cleavage activity of M^pro

beta-defensin 1: naturally occurring antimicrobial peptide (DHYNCVSSGGQCLYSACPIFTKIQGTCYRGKAKCCK; ends and bridges not checked; cysteine pairing not given here; UniProt P60022 33-68, looked up)
Effect against viruses / SARS-CoV-2 (SARS-CoV-2; ref [36]): effective against viruses and a few against SARS-CoV-2

B1: human defensin 5: Source: Homo sapiens (peptide, UniProt Q01523 20-94, looked up)
Defensin alpha 5: ESLQERADEATTQKQSGEDNQDLAISFAGNGLSALRTSGSQARATCYCRTGRCATRESLSGVCEISGRLYRLCCR
modifications: Defensin-5
Effect against viruses / SARS-CoV-2 (SARS-CoV-2; ref [38], [39]): effective against viruses and a few against SARS-CoV-2
